Data as given in PMC6916368, “Cell‐Based Optimization of Covalent Reversible Ketoamide Inhibitors Bridging the Unprimed to the Primed Site of the Proteasome β5 Subunit” (Chemmedchem, 2019).

Key:
[1] = system: THP‐1 cells; test: Cell viability endpoint assay (Celltiter Blue, 72 h); type: cell-based; details: Homo sapiens, mean±SD from two independent experiments
In short: (§1)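 Proteasome inhibitors were tested at 1 nM to 10 μM final on 50.000 cells/well in RPMI-1640 with 0.1 % FBS, plated overnight beforehand, at 37 °C and 5 % CO2. Reagent was incubated 120 minutes before the fluorescence read. IC50 came from a sigmoidal fit of technical triplicates, as the mean of two independent experiments.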

[2] = system: MV4‐11 cells; test: as above; type: cell-based; details: Homo sapiens, MV4-11, mean±SD from two independent experiments
In short: as §1

[3] = system: Jurkat cells; test: as above; type: cell-based; details: Homo sapiens, mean±SD from two independent experiments
In short: as §1

[4] = molecular target: T1, β5c subunit of isolated human 20S proteasome (Homo sapiens, UniProt P28074); test: Proteasome inhibition assay (20 S Proteasome Assay Kit, Suc‐LLVY‐AMC); type: biochemical; details: for inhibition at 1 µM: c = 1 µM, n=1, read-out: Inhibition cCP β5; for inhibition at 0.1 µM: c=100 nM, read-out: Rel. Inhibition β5c; for IC50: purified proteasome; for Fold‐IC50 β5i/β5c: selectivity β5c over β5i
T1 construct: purchased Enzo Life Sciences
In short: (§2)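 Isolated human 20S proteasome (200 ng/well) preincubated 30 min with inhibitor, then 100 μM final Suc-LLVY-AMC (β5c, β5i) or Z-LLE-AMC (β1c) added for 60 min; fluorescence read. Residual activity at 100 nM final (n=3; β5c, β5i) or 1 μM (n=1, incl. β1c). IC50s: technical duplicates, mean of three experiments.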

[5] = molecular target: T2, β5i subunit of isolated human 20S proteasome (Homo sapiens, UniProt P28062); test: as above; type: biochemical; details: for inhibition at 1 µM: c = 1 µM, n=1, read-out: Inhibition iCP β5; for inhibition at 0.1 µM: c=100 nM, read-out: Rel. Inhibition β5i; for IC50: purified proteasome
T2 construct: purchased Enzo Life Sciences
In short: as §2

[6] = molecular target: T3, β2c subunit of isolated human 20S proteasome (Homo sapiens, UniProt Q99436); test: Proteasome inhibition assay (20 S Proteasome Assay Kit, Bz‐VGR‐AMC); type: biochemical; details: c = 1 µM, n=1; read-out: Inhibition cCP β2
T3 construct: purchased Enzo Life Sciences
In short: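 Isolated 20S proteasome (200 ng/well) was preincubated 30 min with inhibitor, then Bz-VGR-AMC (100 μM final) was added for 60 min and fluorescence read. Single-point residual activity was taken at 100 nM or 1 μM; IC50 was fitted from duplicates, mean of three independent experiments.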

[7] = system: Danio rerio embryos; test: Danio rerio embryo toxicity assay (not dechorionated); type: in vivo
Protocol: Danio rerio embryo toxicity assay. Fish keeping protocols are approved by the Darmstadt administrative authority and documented. All fish were treated humanely. […] Embryos were decollated into separate wells containing a total volume of 200 μL and the inhibitor at the given concentration.

[8] = system: proteasome in MV4‐11 cells; test: In‐cell determination of proteasome IC50 (conversion of substrate 30); type: cell-based; details: MV4-11, without pre‐incubation
Protocol: In‐cell determination of proteasome IC 50. […] Substrate was added to give a final concentration of 30 μM and substrate conversion was detected by fluorescence measurement over 100 min (assay validation) or 60 min (inhibition assays) using a Tecan M1000 microplate reader. Rate of fluorescence change over time was calculated, rates for negative (no‐cell) control was subtracted and normalized to positive control (no inhibitor).

[9] = molecular target: T4, β1c subunit of isolated human 20S proteasome (Homo sapiens, UniProt P28072); test: Proteasome inhibition assay (20 S Proteasome Assay Kit, Z‐LLE‐AMC); type: biochemical; details: c = 1 µM, n=1; read-out: Inhibition cCP β1
T4 construct: purchased Enzo Life Sciences
In short: as §2

[10] = system: THP‐1 cells; type: cell-based
Protocol: (§3) Remarkably, in THP‐1 cells the initial cytotoxicity is increasing for 3 compared to 27 until 14 h treatment (9‐fold) but is approaching to the end of the assay.
(§4) Time‐dependent determination of cell viability. For the determination of time‐dependent cytotoxic activity 5.000 cells per well were plated in a white 384 well‐plate in RPMI‐1640 medium supplemented with 0.1 % FBS. Real‐Time Glo MT cell viability assay (Promega) and inhibitor were added to the final concentration and luminescence was determined using a Tecan M1000 microplate reader at the time points indicated (SI chapter 2b, Figure S9–S17, Table S2).

[11] = in vitro; type: cell-based; details: human
Protocol: as §3, §4

SMILES	IC50 [1]	IC50 [2]	IC50 [3]	inhibition at 1 µM [4]	inhibition at 0.1 µM [4]	inhibition at 1 µM [5]	inhibition at 0.1 µM [5]	inhibition at 1 µM [6]	Survival of embryos (not dechorionated) ([7]; 1 µM, 24 h)	Survival of embryos (not dechorionated) ([7]; 1 µM, 48 h)	Survival of embryos (not dechorionated) ([7]; 1 µM, 72 h)	Survival of embryos (not dechorionated) ([7]; 1 µM, 96 h)	Survival of embryos (not dechorionated) ([7]; 5 µM, 24 h)	Survival of embryos (not dechorionated) ([7]; 5 µM, 48 h)	Survival of embryos (not dechorionated) ([7]; 5 µM, 72 h)	Survival of embryos (not dechorionated) ([7]; 5 µM, 96 h)	Survival of embryos (not dechorionated) ([7]; 10 µM, 24 h)	Survival of embryos (not dechorionated) ([7]; 10 µM, 48 h)	Survival of embryos (not dechorionated) ([7]; 10 µM, 72 h)	Survival of embryos (not dechorionated) ([7]; 10 µM, 96 h)	further results
Cc1ccc(NC(=O)C(=O)C(CC(C)C)NC(=O)C(CC(C)C)NC(=O)C(CC(C)C)NC(=O)OCc2ccccc2)c(C)c1 (stereo not drawn) [Compound 7, BSc4999]	24 ± 0.1 nM	19 ± 3 nM	30 ± 0.3 nM	92%	64%	74%	33%	9%	100%	100%	100%	100%	100%	100%	100%	100%	100%	100%	100%	100%	IC50 [4]: 48 nM; Fold‐IC50 β5i/β5c [4]: 4.3; IC50 [5]: 204 nM; Survival of embryos (not dechorionated) ([7]; 25 µM, 24 h): 80%; Survival of embryos (not dechorionated) ([7]; 25 µM, 48 h): 80%; Survival of embryos (not dechorionated) ([7]; 25 µM, 72 h): 80%; Survival of embryos (not dechorionated) ([7]; 25 µM, 96 h): 80%; fold more potent than 9 (in-cell conversion of 30) [8]: 4 fold; inhibition at 1 µM [9]: -26%
CC(C)C[C@H](NC(=O)[C@H](CCc1ccccc1)NC(=O)CN1CCOCC1)C(=O)N[C@@H](Cc1ccccc1)C(=O)N[C@@H](CC(C)C)C(=O)[C@@]1(C)CO1 [Carfilzomib 3, Carfilzomib]	135 ± 39 nM	3.6 ± 1.8 nM	14 ± 3 nM	96%	86%	91%	43%	37%	100%	100%	100%	100%	100%	100%	100%	100%	100%	100%	100%	100%	cytotoxicity of 3 compared to 27 [10]: 9 fold; Survival of embryos (not dechorionated) ([7]; 25 µM, 24 h): 100%; Survival of embryos (not dechorionated) ([7]; 25 µM, 48 h): 100%; Survival of embryos (not dechorionated) ([7]; 25 µM, 72 h): 100%; Survival of embryos (not dechorionated) ([7]; 25 µM, 96 h): 100%; IC50 at 13 h [11]: 50 to 400 nM; inhibition at 1 µM [9]: -18%
CC(C)C[C@H](NC(=O)OCc1ccccc1)C(=O)N[C@@H](CC(C)C)C(=O)N[C@@H](CC(C)C)C(=O)C(=O)Nc1cccc(Oc2ccccc2)c1 [Compound 9, Benzyl‐((S)‐4‐methyl‐1‐(((S)‐4‐methyl‐1‐(((S)‐5‐methyl‐1,2‐dioxo‐1‐((3‐phenoxyphenyl)‐amino)hexan‐3‐yl)amino)‐1‐oxopentan‐2‐yl)amino)‐1‐oxopentan‐2‐yl)carbamate]	30 ± 10 nM	18 ± 3 nM	24 ± 4 nM	81%	56%	31%	23%	9%	100%	100%	100%	100%	100%	100%	100%	100%	100%	100%	100%	100%	IC50 [4]: 66 nM; Fold‐IC50 β5i/β5c [4]: 2.6; IC50 [5]: 170 nM; Survival of embryos (not dechorionated) ([7]; 25 µM, 24 h): 100%; Survival of embryos (not dechorionated) ([7]; 25 µM, 48 h): 100%; Survival of embryos (not dechorionated) ([7]; 25 µM, 72 h): 100%; Survival of embryos (not dechorionated) ([7]; 25 µM, 96 h): 100%; inhibition at 1 µM [9]: 0%
